Numbers after ± are expanded uncertainties.
Conditions: Hot wire method

## C=C(F)C(F)(F)F [2,3,3,3-tetrafluoro-1-propene]
283.75 K, 88 kPa, Gas
  thermal conductivity: 0.0125 ± 0.00043 W/m/K
283.88 K, 199 kPa, Gas
  thermal conductivity: 0.01243 ± 0.00042 W/m/K
283.93 K, 20590 kPa, Liquid
  thermal conductivity: 0.07977 ± 0.00088 W/m/K
283.98 K, 395 kPa, Gas
  thermal conductivity: 0.01256 ± 0.00043 W/m/K
284.1 K, 309 kPa, Gas
  thermal conductivity: 0.01245 ± 0.00043 W/m/K
284.15 K, 20592 kPa, Liquid
  thermal conductivity: 0.07943 ± 0.00089 W/m/K
284.2 K, 89 kPa, Gas
  thermal conductivity: 0.01254 ± 0.00043 W/m/K
284.31 K, 197 kPa, Gas
  thermal conductivity: 0.01245 ± 0.00043 W/m/K
284.67 K, 91 kPa, Gas
  thermal conductivity: 0.01256 ± 0.00043 W/m/K
291.15 K, 109 kPa, Gas
  thermal conductivity: 0.01341 ± 0.00046 W/m/K
291.17 K, 246 kPa, Gas
  thermal conductivity: 0.01364 ± 0.00046 W/m/K
291.37 K, 109 kPa, Gas
  thermal conductivity: 0.01324 ± 0.00045 W/m/K
291.37 K, 244 kPa, Gas
  thermal conductivity: 0.01349 ± 0.00046 W/m/K
291.59 K, 242 kPa, Gas
  thermal conductivity: 0.01339 ± 0.00045 W/m/K
291.6 K, 109 kPa, Gas
  thermal conductivity: 0.01311 ± 0.00045 W/m/K
291.83 K, 240 kPa, Gas
  thermal conductivity: 0.01331 ± 0.00045 W/m/K
291.85 K, 109 kPa, Gas
  thermal conductivity: 0.01303 ± 0.00044 W/m/K
292.07 K, 238 kPa, Gas
  thermal conductivity: 0.01328 ± 0.00045 W/m/K
292.07 K, 432 kPa, Gas
  thermal conductivity: 0.01333 ± 0.00045 W/m/K
292.1 K, 109 kPa, Gas
  thermal conductivity: 0.01299 ± 0.00044 W/m/K
292.1 K, 342 kPa, Gas
  thermal conductivity: 0.01323 ± 0.00045 W/m/K
292.36 K, 109 kPa, Gas
  thermal conductivity: 0.0132 ± 0.00045 W/m/K
292.39 K, 429 kPa, Gas
  thermal conductivity: 0.01328 ± 0.00045 W/m/K
292.43 K, 342 kPa, Gas
  thermal conductivity: 0.01327 ± 0.00045 W/m/K
292.51 K, 245 kPa, Gas
  thermal conductivity: 0.01312 ± 0.00045 W/m/K
292.67 K, 538 kPa, Gas
  thermal conductivity: 0.01326 ± 0.00045 W/m/K
292.73 K, 428 kPa, Gas
  thermal conductivity: 0.01333 ± 0.00045 W/m/K
292.74 K, 109 kPa, Gas
  thermal conductivity: 0.01324 ± 0.00045 W/m/K
292.78 K, 343 kPa, Gas
  thermal conductivity: 0.01325 ± 0.00045 W/m/K
292.88 K, 243 kPa, Gas
  thermal conductivity: 0.01315 ± 0.00045 W/m/K
293.03 K, 536 kPa, Gas
  thermal conductivity: 0.01339 ± 0.00045 W/m/K
293.08 K, 428 kPa, Gas
  thermal conductivity: 0.01323 ± 0.00045 W/m/K
293.14 K, 109 kPa, Gas
  thermal conductivity: 0.01331 ± 0.00045 W/m/K
293.15 K, 343 kPa, Gas
  thermal conductivity: 0.01331 ± 0.00045 W/m/K
293.15 K, Liquid
  thermal conductivity: 0.06515 ± 0.00046 W/m/K
293.28 K, 241 kPa, Gas
  thermal conductivity: 0.01321 ± 0.00045 W/m/K
293.38 K, 532 kPa, Gas
  thermal conductivity: 0.01333 ± 0.00045 W/m/K
293.46 K, 428 kPa, Gas
  thermal conductivity: 0.01337 ± 0.00045 W/m/K
293.55 K, 343 kPa, Gas
  thermal conductivity: 0.01331 ± 0.00045 W/m/K
293.57 K, 109 kPa, Gas
  thermal conductivity: 0.01327 ± 0.00045 W/m/K
293.7 K, 239 kPa, Gas
  thermal conductivity: 0.01323 ± 0.00045 W/m/K
294.03 K, 109 kPa, Gas
  thermal conductivity: 0.01333 ± 0.00045 W/m/K
301.39 K, 199 kPa, Gas
  thermal conductivity: 0.01436 ± 0.00049 W/m/K
301.41 K, 95 kPa, Gas
  thermal conductivity: 0.01419 ± 0.00048 W/m/K
301.62 K, 199 kPa, Gas
  thermal conductivity: 0.0142 ± 0.00048 W/m/K
301.64 K, 95 kPa, Gas
  thermal conductivity: 0.01403 ± 0.00047 W/m/K
301.86 K, 199 kPa, Gas
  thermal conductivity: 0.0141 ± 0.00048 W/m/K
301.88 K, 95 kPa, Gas
  thermal conductivity: 0.01395 ± 0.00047 W/m/K
301.95 K, 868 kPa, Liquid
  thermal conductivity: 0.06212 ± 0.0007 W/m/K
301.98 K, 5731 kPa, Liquid
  thermal conductivity: 0.06593 ± 0.00074 W/m/K
302.03 K, 10752 kPa, Liquid
  thermal conductivity: 0.06904 ± 0.00078 W/m/K
302.06 K, 867 kPa, Liquid
  thermal conductivity: 0.06223 ± 0.0007 W/m/K
302.08 K, 16026 kPa, Liquid
  thermal conductivity: 0.07261 ± 0.0008 W/m/K
302.09 K, 5728 kPa, Liquid
  thermal conductivity: 0.0658 ± 0.00074 W/m/K
302.11 K, 199 kPa, Gas
  thermal conductivity: 0.01401 ± 0.00047 W/m/K
302.13 K, 10752 kPa, Liquid
  thermal conductivity: 0.06936 ± 0.00078 W/m/K
302.14 K, 95 kPa, Gas
  thermal conductivity: 0.01385 ± 0.00047 W/m/K
302.16 K, 648 kPa, Gas
  thermal conductivity: 0.0142 ± 0.00048 W/m/K
302.18 K, 16021 kPa, Liquid
  thermal conductivity: 0.0724 ± 0.0008 W/m/K
302.26 K, 510 kPa, Gas
  thermal conductivity: 0.01411 ± 0.00048 W/m/K
302.37 K, 199 kPa, Gas
  thermal conductivity: 0.01396 ± 0.00047 W/m/K
302.38 K, 350 kPa, Gas
  thermal conductivity: 0.01405 ± 0.00048 W/m/K
302.42 K, 95 kPa, Gas
  thermal conductivity: 0.01379 ± 0.00047 W/m/K
302.43 K, 868 kPa, Liquid
  thermal conductivity: 0.06253 ± 0.0007 W/m/K
302.45 K, 5727 kPa, Liquid
  thermal conductivity: 0.06616 ± 0.00074 W/m/K
302.47 K, 10752 kPa, Liquid
  thermal conductivity: 0.06961 ± 0.00077 W/m/K
302.48 K, 635 kPa, Gas
  thermal conductivity: 0.01423 ± 0.00048 W/m/K
302.5 K, 16022 kPa, Liquid
  thermal conductivity: 0.07296 ± 0.00081 W/m/K
302.54 K, 20560 kPa, Liquid
  thermal conductivity: 0.07444 ± 0.00083 W/m/K
302.56 K, 199 kPa, Gas
  thermal conductivity: 0.01413 ± 0.00048 W/m/K
302.58 K, 865 kPa, Liquid
  thermal conductivity: 0.06226 ± 0.0007 W/m/K
302.58 K, 5727 kPa, Liquid
  thermal conductivity: 0.06624 ± 0.00074 W/m/K
302.59 K, 510 kPa, Gas
  thermal conductivity: 0.01416 ± 0.00048 W/m/K
302.6 K, 10751 kPa, Liquid
  thermal conductivity: 0.06953 ± 0.00077 W/m/K
302.62 K, 16020 kPa, Liquid
  thermal conductivity: 0.0724 ± 0.0008 W/m/K
302.66 K, 20555 kPa, Liquid
  thermal conductivity: 0.07461 ± 0.00083 W/m/K
302.74 K, 350 kPa, Gas
  thermal conductivity: 0.01409 ± 0.00048 W/m/K
302.78 K, 95 kPa, Gas
  thermal conductivity: 0.01418 ± 0.00048 W/m/K
302.82 K, 634 kPa, Gas
  thermal conductivity: 0.01428 ± 0.00048 W/m/K
302.93 K, 199 kPa, Gas
  thermal conductivity: 0.01415 ± 0.00048 W/m/K
302.94 K, 510 kPa, Gas
  thermal conductivity: 0.01416 ± 0.00048 W/m/K
302.96 K, 5727 kPa, Liquid
  thermal conductivity: 0.06618 ± 0.00074 W/m/K
302.96 K, 10747 kPa, Liquid
  thermal conductivity: 0.06954 ± 0.00077 W/m/K
302.97 K, 16018 kPa, Liquid
  thermal conductivity: 0.07247 ± 0.0008 W/m/K
302.98 K, 865 kPa, Liquid
  thermal conductivity: 0.0622 ± 0.0007 W/m/K
303.01 K, 20553 kPa, Liquid
  thermal conductivity: 0.07485 ± 0.00083 W/m/K
303.11 K, 350 kPa, Gas
  thermal conductivity: 0.01412 ± 0.00048 W/m/K
303.13 K, 5725 kPa, Liquid
  thermal conductivity: 0.06595 ± 0.00074 W/m/K
303.13 K, 10746 kPa, Liquid
  thermal conductivity: 0.06929 ± 0.00077 W/m/K
303.13 K, 16018 kPa, Liquid
  thermal conductivity: 0.0723 ± 0.0008 W/m/K
303.15 K, 20550 kPa, Liquid
  thermal conductivity: 0.07489 ± 0.00083 W/m/K
303.15 K, Liquid
  thermal conductivity: 0.06204 ± 0.00045 W/m/K
303.16 K, 864 kPa, Liquid
  thermal conductivity: 0.0621 ± 0.0007 W/m/K
303.17 K, 638 kPa, Gas
  thermal conductivity: 0.01429 ± 0.00048 W/m/K
303.31 K, 509 kPa, Gas
  thermal conductivity: 0.01414 ± 0.00048 W/m/K
303.33 K, 199 kPa, Gas
  thermal conductivity: 0.01417 ± 0.00048 W/m/K
303.5 K, 16015 kPa, Liquid
  thermal conductivity: 0.07239 ± 0.0008 W/m/K
303.51 K, 350 kPa, Gas
  thermal conductivity: 0.01407 ± 0.00048 W/m/K
303.51 K, 10746 kPa, Liquid
  thermal conductivity: 0.06924 ± 0.00077 W/m/K
303.51 K, 20552 kPa, Liquid
  thermal conductivity: 0.07485 ± 0.00083 W/m/K

Source: the NIST ThermoML archive (doi:10.1021/je200811n)
